One series deals with SNU-719 cells. Briefly: Growth proliferation, viability, apoptosis, cell cycle and clonogenic assays in SNU-719 cells. It counts as cell-based. How it is done: Growth proliferation assay. SNU-719 HA-dCas9-Tet-on-PUFa-p65HSF1-BZLF1 gRNA (3) or C666-1 HA-dCas9-Tet-on-PUFa-p65HSF1-BZLF1 gRNA (A5) cells were seeded into individual wells of a 96-well plate for at 1×10^5 cells per well the day before being treated with 1 μg/mL DOX and Ganciclovir (GCV). Cells were counted with the cell counting kit-8 (CCK-8, Sigma) at day 6, day 7, and day 8 (FIGS. 8H-8I).
Active caspase-3 analysis. To detect the apoptosis in DOX treated dCas9-Tet on-p65HSF1-BZLF1sgRNA3 SNU719 and C17 cells, active caspase-3 apoptosis kit (BD Pharmingen #550914) was used. Untreated and treated cells were trypsinized and then fixed with fixation buffer in ice for 20 mins and washed with washing buffer twice. Cells were then stained with the PE conjugated rabbit anti active caspase-3 antibody in dark for 30 mins. Stained cells were collected with BD LSRFortessa.
Cell cycle analysis. After 96 hours from induction of DOX, dCas9-Tet on-p65HSF1-BZLF1sgRNA3 SNU719 and C17 cells were trypsinized and then fixed with 75% cold ethanol for 2 hrs at −20° C. Cells were washed three times with cold PBS and then resuspended in PBS containing 100 μg/mL RNase A and 10 μg/mL propidium iodide for 10 min at room temperature. Stained cells were collected with BD LSRFortessa.
Clonogenic assays. Cells were seeded at a density of 500 cells/well in 6-well plates the day before treatment. Then cells were stained with 0.5% crystal violet 14 days after treatment, and at least 50 cells were considered as a single colony

In series [1] the test system is EBV early proteins EA-D and PK. The experiment in a line: BZLF1 and BRLF1 gRNA co-transfection in C666-1 cells, EBV lytic protein expression. The class given is cell-based, Epstein-Barr virus (EBV). The conditions noted are these: cell lysate 48 hours post-transfection.
For a further series, the system named is EBV lytic genes. The experiment in a line: EBV lytic gene induction in DOX-induced SNU-719 dCas9-Tet-on-PUFa-p65HSF1 gRNA cells. It counts as cell-based, Epstein-Barr virus (EBV). From the text: SNU-719 and C666-1 cancer cells stably expressing HA-dCas9-EGFP and BZLF1 gRNA (A5) were modified to inducibly express 3×FLAG-PUFa-p65HSF1 using a Tetracycline response element (Tet-On). […] This reactivation of EBV slows the growth rate of cells by greater than 4 fold compared with cells treated with ganciclovir (GCV) alone, a current standard treatment for EBV infection (FIGS. 3B, 6A, 8H-8I). Further, treatment with BZLF1 gRNA (A5) decreases C666-1 cell viability by 50-70% relative to control (FIG. 6B).
Producing Tet-on PUFa-p65HSF1 cell line. SNU-719 or C666-1 cells stably expressing HA-dCas9-EGFP were seeded into a 60 mm culture dish at 70% density. The cells were transfected with 1 μg hyPBase (transposase) and 2 μg dox-inducible PUFa-p65HSF1 in a piggyBac vector plasmid through Lipofectamine 2000 reagent (Invitrogen). At 6 hours post-transfection, cell culture medium was exchanged. At 48 hours post-transfection, cells were selected with hygromycin antibiotics.
Producing Tet-on PUFa-p65HSF1 and BZLF1 gRNA (3) cell line. The day prior to transfection, HEK-293FT cells were seeded into a 10 cm culture dish at 70% density. […]. At 6 hours post-transfection, medium was exchanged for fresh. At 48 hours post-transfection, 5 mL of medium containing the lentivirus was collected and centrifuged for 10 minutes at 2,000 rpm to remove cellular debris. The supernatant was filtered through a 0.45-micron filter (Millipore), and the lentivirus was collected. SNU-719 dCas9-Tet-on-PUFa-p65HSF1 or C666-1 dCas9-Tet-on-PUFa-p65HSF1 cells were seeded into a 10 cm culture dish at 60% density per dish, transduced with 7 mL of the BZLF1 gRNA (A5) lentivirus in culture medium supplemented with 8 μg/mL polybrene for 48 hours, and subsequently selected with Puromycin antibiotics on the third day post-transduction.
RNA in-situ hybridization ISH (RNAscope®). Doxycycline (DOX) treated or untreated SNU-719 HA-dCas9-EGFP-Tet-on-PUFa-p65HSF1-BZLF1 gRNA (A5) cells or C666-1-HA-dCas9-Tet-on-PUFa-p65HSF1-BZLF1 gRNA (A5) cells were incubated for 48 hours. […]

With “BZLF1 gRNA (A5): BZLF1 gRNA spacer sequence SEQ ID NO: 10, GAAACTATGCATGAGCCAC (chemistry not given here)”, the “cell cycle by flow cytometry” value in the series on SNU-719 cells (SNU719, DOX induced, FIG. 17B) was “sub G1 phase accumulation and S phase decrease”. In the series on SNU-719 cells (SNU719, after DOX induction, FIG. 17E), the monolayer colony formation result was “dramatic suppression”. The “cell proliferation, apoptosis and growth of cells in vitro” value in the series on SNU-719 cells (SNU-719, DOX-induced EBV reactivation) is “suppressed the cell proliferation, induced apoptosis, and slowed the growth of cells”. Also, the “slowing of growth rate of cells compared with cells treated with ganciclovir (GCV) alone” value with SNU-719 cells (SNU-719, EBV reactivation by 1 μg/mL DOX, FIG. 8I) was “greater than 4 fold”. For the same substance, the “EBV reactivation, expression of the EBV early proteins EA-D and PK” value in series [1] is “induce EBV reactivation”. Also, in the series on EBV lytic genes (1 μg/mL DOX), the “expression of other EBV lytic genes including BRLF1 (Rta), BGLF4 (PK), BFRF3 (VCAp18), BMRF1, BdRF1 and BLLF1” value is recorded as “induces the expression of other EBV lytic genes”. Also, in the series on EBV lytic genes (1 μg/mL Doxycycline (DOX), Example 10), the “BZLF1 (Zta) reactivation” value is recorded as “reactivated BZLF1 (Zta)”. Also, in the series on EBV lytic genes (3×FLAG-PUFa-p65HSF1 induced with 1 μg/mL Doxycycline), the “induction of the BZLF1, BGLF4, BMRF1, and BFRF3 (VCAp18) EBV lytic genes” value is reported as “reactivated EBV”.

For the origin of these results see patent US20230114264A1, “ACTIVATION OF LYTIC GENES IN CANCER CELLS” (priority 2020, published 2023).
